Measured values: PMC12270677, “Topological isomers of a potent wound healing peptide: Structural insights and implications for bioactivity” (The Journal of Biological Chemistry, 2025)
Positions of bridges follow the written chain, without caps; N, C: chain ends. Residues, ends and D or L forms follow the SMILES beside them. No end group written: not given here.

How the values were obtained:
[1] = test system: wound healing in a mouse model; settings: compared with Regranex; cited from earlier work
Description: This study highlights the structural complexity and bioactivity of isomers in disulfide-rich peptides, with a focus on GRN-P4A. GRN-P4A is a mutant peptide derived from Ov-GRN12 − 35_3s, a truncated form of the liver fluke granulin Ov-GRN-1, known for its potent wound healing properties.

[2] = test system: LX-2 human hepatic stellate cell line; experiment: Real-time cell proliferation assay (xCELLigence); settings: for EC50: read-out: EC50, LX-2 cell proliferation, xCELLigence SP, 3000 cells per well, serum-free medium, single treatment, proliferation measured 4 days after treatment, relative to scrambled peptide control GSP, variable slope dose-response fit, six replicates per treatment; for Proliferative response of LX-2 cells at concentrations up to 400 nM: 4 days after single treatment, relative to GSP, ANOVA against peptide control
Protocol: Real-time cell proliferation assays using xCELLigence technology were performed to assess the effects of GRN-P4A isomers and the mutant peptide GRN-L1m on the human hepatic stellate cell line LX-2.
Figure 7 Cell proliferation assay of GRN-P4A isomers and GRN-L1m on human hepatic stellate cells (LX-2). The five peptides were tested across a concentration range of 0.16 nM to 800 nM using the LX-2 human hepatic stellate cell line. Two negative controls were included: serum-free media (SFM) and a scrambled GRN-P4A peptide (GSP). The graphs display variable slope dose–response curves fitted to proliferation data measured 4 days after a single treatment application. […] Proliferation is expressed relative to the scrambled peptide control (GSP) and presented as mean ± SEM. Statistical significance was assessed using one-way ANOVA against the peptide control. ∗ = […], ∗∗ = p < 0.01, ∗∗∗ = p < 0.001, ∗∗∗∗ = p < 0.0001.
The LX-2 human hepatic stellate cell line was generously donated by Dr Lionel Hebbard. Cells were cultured and maintained in Dulbecco’s Modified Eagle Medium/Nutrient Mixture F-12 (DMEM/F12) with GlutaMAX (Gibco) with 2 × antibiotic/antimycotic solution (penicillin, streptomycin, and amphotericin B), supplemented with 2% fetal bovine serum (FBS) (Gibco), at 37°C and 5% CO2. For the negative control, cells were treated with scrambled granulin peptide (GSP) or serum free media diluent. Dried peptide powder was resuspended in Milli-Q water to 170 μM and diluted in serum-free DMEM/F12 media.
Cell proliferation was monitored in real time using the xCELLigence SP system (ACEA Biosciences), following previously established method ([37]). LX2 cells were seeded into a 96-well xCELLigence E-plate (Agilent) at a density of 3000 cells per well in 150 μl of medium, and placed in the xCELLigence system at 37°C with 5% CO2, for overnight monitoring ([38]). Treatments were applied in serum-free medium at 20 μl per well, achieving final concentrations of […] to 800 nM, with six replicates per treatment. The cell index (CI) was continuously monitored using the Real-Time Cell Analysis (RTCA) software (Agilent), with measurements taken every hour over 6 days following treatment. Cell indices were normalized to the baseline values prior to treatment, and cell proliferation was expressed as the relative number of cells compared to the negative control GRN-scrambled peptide (GSP). Statistical analysis was conducted using two-way ANOVA test with Holm-Sidak’s correction comparing controls to treatments at each timepoint with GraphPad Prism 9.3.1 (www.graphpad.com).

[3] = NMR at three temperatures to assess interconversion of isomer 1 into isomer 2; format: physicochemical; settings: αH secondary shifts at 283 K, 290 K and 310 K, 0.2 mM peptide in water/D2O
Protocol: NMR spectra of isomer 1 were recorded at the three different temperatures of 290 K (standard conditions), 310 K (physiological temperature), and 283 K (lower temperature) to assess potential interconversion into isomer 2, the major oxidation product.
Lyophilized peptides were rehydrated in a mixture of 500 μl water and 50 μl D2O, to obtain a final concentration of 0.2 mM. NMR spectra were recorded at temperatures of 283, 290 and 310 K using a 600 MHz Bruker Avance III spectrometer (Bruker) equipped with a cryoprobe. Chemical shifts were referenced to external DSS (sodium trimethylsilylpropanesulfonate). Two-dimensional spectra included [^1H,^1H]-TOCSY, [^1H,^1H]-H/D exchange TOCSY, [^1H,^1H]-NOESY, [^1H,^1H]-COSY, [^1H,^1H]-exclusive correlation spectroscopy, [^1H,^13 C]-HSQC, and [^1H,^15 N]-HSQC with TOCSY and NOESY mixing times of 80 ms and 200 ms, respectively. NMR data processing and analysis were performed using TopSpin (Bruker), and peak assignments were made using CcpNMR Analysis (Collaborative Computing Project for NMR) based on the method outlined by Wuthrich ([28], [29]). Backbone torsion-angle restraints for phi and psi were predicted from ^1H and ^13C chemical-shift analyses, were predicted using TALOS-N ([30]). […] The αH secondary shifts were determined by subtracting random coil ^1H NMR chemical shifts ([19]) from the experimental αH chemical shifts. […]

Which “Wound healing activity in a mouse model” value [1] does the source give for “CPDAVYTCRPGQTCCRGLHGYGCC (also: bicyclic or more (positions not given here)) [GRN-P4A, 24-residue peptide containing three disulfide bonds engineered from liver-fluke granulin Ov-GRN-1]” here?
Its value is “enhanced wound healing activity”.

With `CC(C)C[C@@H]1NC(=O)CNC(=O)[C@H](CCCNC(=N)N)NC(=O)[C@@H]2CSSC[C@@H](C(=O)O)NC(=O)[C@H](CSSC[C@@H]3NC(=O)[C@H]([C@@H](C)O)NC(=O)[C@H](Cc4ccc(O)cc4)NC(=O)[C@H](C(C)C)NC(=O)[C@H](C)NC(=O)[C@H](CC(=O)O)NC(=O)[C@@H]4CCCN4C(=O)[C@@H](N)CSSC[C@H](NC(=O)[C@H]([C@@H](C)O)NC(=O)[C@H](CCC(N)=O)NC(=O)CNC(=O)[C@@H]4CCCN4C(=O)[C@H](CCCNC(=N)N)NC3=O)C(=O)N2)NC(=O)CNC(=O)[C@H](Cc2ccc(O)cc2)NC(=O)CNC(=O)[C@H](Cc2c[nH]cn2)NC1=O` (single isomer, unassigned) [GRN-P4A isomer 2] as the compound, how does the EC50 ([2]; LX-2 cells) read?
Its EC50 is 93 nM.

For “CPDAVYTCRPGQTCCRGLHGYGCC (also: bicyclic or more (positions not given here)) [GRN-P4A isomer 4]”, which “Cell proliferation at higher concentrations” value ([2]; LX-2 cells, xCELLigence, statement in the Discussion, tested up to 800 nM) is on record?
The value was “promoted cell proliferation at higher concentrations”.

And the “Proliferative response of LX-2 cells at concentrations up to 400 nM” value (from here on “Proliferative response of LX-2 cells”) ([2]; xCELLigence, listed as isomer 4)?
Its value is “did not produce a statistically significant response”.

For “CPDAVYTCRPGQTCCRGLHGYGCC (also: bicyclic or more (positions not given here)) [GRN-P4A isomer 3]”, which Cytotoxicity ([2]; LX-2 cells, xCELLigence, statement in the Discussion, likely due to peptide aggregation) is on record?
Its Cytotoxicity is “displayed cytotoxicity”.

And the “Proliferative response of LX-2 cells” value ([2]; xCELLigence, listed as isomer 3)?
Its value is “did not produce a statistically significant response”.

For “CPDAVYTCRPGQTCCRGLHGYGCC (also: bicyclic or more (positions not given here)) [GRN-P4A isomer 1, Fully oxidized GRN-P4A topological isomer eluting first in RP-HPLC, mini-granulin fold]”, which “Proliferative response of LX-2 cells” value ([2]; xCELLigence) is on record?
The value was “did not produce a statistically significant proliferative response”.

What about the “Proliferative response of LX-2 cells” value ([2]; xCELLigence, listed as isomer 1) of the same compound?
The value was “did not produce a statistically significant response”.

What about the “Conformational stability / interconversion into isomer 2 with temperature” value ([3]; listed as Isomer 1) of the same compound?
Its value is “retained its structure across all tested temperatures”.

What about the “Conformational stability / interconversion into isomer 2 with temperature” value ([3]; listed as isomer 1) of the same compound?
Its value is “no evidence of interconversion”.

For `CC(C)C[C@@H]1NC(=O)CNC(=O)[C@H](CCCNC(=N)N)NC(=O)[C@@H]2CSSC[C@@H](C(=O)O)NC(=O)[C@H](CSSC[C@@H]3NC(=O)[C@H]([C@@H](C)O)NC(=O)[C@H](Cc4ccc(O)cc4)NC(=O)[C@H](C(C)C)NC(=O)[C@H](C)NC(=O)[C@H](CC(=O)O)NC(=O)CNC(=O)[C@@H](N)CSSC[C@H](NC(=O)[C@H]([C@@H](C)O)NC(=O)[C@H](CCC(N)=O)NC(=O)CNC(=O)[C@@H]4CCCN4C(=O)[C@H](CCCNC(=N)N)NC3=O)C(=O)N2)NC(=O)CNC(=O)[C@H](Cc2ccc(O)cc2)NC(=O)CNC(=O)[C@H](Cc2c[nH]cn2)NC1=O` [GRN-L1m] (H-CGDAVYTCRPGQTCCRGLHGYGCC-OH; disulfide 1-14, 8-23, 15-24), which EC50 ([2]; LX-2 cells) is on record?
Its EC50 is 318 nM.
